The values below are quoted from earlier work in US8778840B2, “Soluble liquid formulations of quinclorac ammonium salts” (BASF SE, priority 2007, dated 2014).

The conditions of this data set: pH 7 at 20° C.

In the case of `O=C(O)c1c(Cl)ccc2cc(Cl)cnc12` [Quinclorac, 3,7-dichloro-8-quinolinecarboxylic acid], the solubility in water is on record as 0.065 mg/kg.
